Experimental data: patent publication US20250313535A1, “ALPHA 4 BETA 7 INTEGRIN MODULATORS AND USES THEREOF” (DICE MOLECULES SV, INC., priority 2022, published 2025)

What was measured:
Type in all cases: cell-based
α4β1 integrin [1] = target: T1, α4β1 integrin (Homo sapiens (Human), UniProt P05556+P13612); assay: Integrin Adhesion Assay: Protocol 2 (VCAM-coated plate, Jurkat cells, CellTiter GLO readout); settings: determined by at least one of the assays described (protocol not specified)
Description: α4β7 and α4β1 inhibition was evaluated in vitro using at least one of the following procedures:
Integrin Adhesion Assay: Protocol 2
VCAM (R&D Systems, 0.1 ug) was diluted in 50 μL PBS, added to each well of an opaque ELISA plate (Thermo), and incubated overnight at 4° C. Coated plates were washed once with PBS and then blocked with 200 μL of assay buffer (10 mM HEPES, 150 mM NaCl, 1 mM MnCl2, 0.1 mM CaCl2), 1% BSA) for 1 hour at 37° C. and 5% CO2. After incubation, buffer was aspirated from the plates and 50 μL of fresh assay buffer was added. Compounds were added by compounds dispenser (Tecan) and DMSO concentration was normalized to 1% across each plate. 50 μL of Jurkat cells (2×10^6 per mL) were added to each well and the plates were incubated for 1 hour at 37° C. and 5% CO2. After incubation, plates were allowed to cool to RT for 10 minutes before being washed four times in assay buffer by an automated plate washer (BioTek). After washing, 100 μL of a 1:1 mixture of assay buffer and CellTiter GLO 2.0 reagent (Promega) were added to each well. Plates were mixed for 2 minutes at 1000 rpm and then allowed to incubate an additional 10 minutes before reading out luminescence on a Tecan Spark plate reader. Raw data was converted to percent inhibition based on DMSO only and control compound wells, and curves were analyzed by 4-parameter fit within Dotmatics software.

α4β7 integrin [2] = target: T2, α4β7 integrin (Homo sapiens (Human), UniProt P13612+P26010); assay: Integrin Adhesion Assay: Protocol 1 (MAdCAM-coated plate, RPMI-8866 cells, CellTiter GLO readout)
Method in brief: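 RPMI-8866 cells (2×10^6 per mL) added with compounds (1% DMSO) to MAdCAM-coated wells blocked in HEPES/NaCl buffer with 1 mM MnCl2, 0.1 mM CaCl2, 1% BSA; 1 h at 37° C, 5% CO2. After four washes, bound cells read by CellTiter GLO luminescence; % inhibition vs DMSO and control wells, 4-parameter fit.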

α4β7 integrin [3] = target: T2, α4β7 integrin; assay: Integrin Adhesion Assay: Protocol 4 (MAdCAM-coated plate, RPMI-8866 cells with stable LOF mutation of the ITGB1 gene); settings: RPMI-8866 cells with stable LOF mutation of the ITGB1 gene; read-out: Mean IC50 α4β7 KO^a
Method in brief: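 RPMI-8866 cells with CRISPR/Cas9 knockout of ITGB1 (2×10^6/mL) were added to MAdCAM-coated wells with compound (1% DMSO) in HEPES/NaCl buffer with 1 mM MnCl2, 0.1 mM CaCl2 and 1% BSA, then incubated 1 h at 37 °C. After four washes, adherent cells were quantified by CellTiter-Glo luminescence. Percent inhibition versus DMSO and control compound was fitted to 4-parameter curves.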

α4β1 integrin [4] = target: T1, α4β1 integrin; assay: Integrin Adhesion Assay: Protocol 5 (VCAM-coated plate, RPMI-8866 cells with stable LOF mutation of the ITGB7 gene); settings: RPMI-8866 cells with stable LOF mutation of the ITGB7 gene; read-out: Mean IC50 α4β1 KO^b
Method in brief: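 RPMI-8866 B cells with CRISPR/Cas9 ITGB7 knockout (clonal, verified by flow cytometry) adhered to VCAM-coated wells for 1 h at 37° C in HEPES/NaCl buffer with 1 mM MnCl2, 0.1 mM CaCl2, 1% BSA, 1% DMSO. Bound cells quantified by CellTiter-Glo luminescence after washing; % inhibition versus DMSO and control, 4-parameter fit.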

[5] = integrin adhesion assay, determined by at least one of the assays described (protocol not specified)

T1 sequence (P13612 34-1032): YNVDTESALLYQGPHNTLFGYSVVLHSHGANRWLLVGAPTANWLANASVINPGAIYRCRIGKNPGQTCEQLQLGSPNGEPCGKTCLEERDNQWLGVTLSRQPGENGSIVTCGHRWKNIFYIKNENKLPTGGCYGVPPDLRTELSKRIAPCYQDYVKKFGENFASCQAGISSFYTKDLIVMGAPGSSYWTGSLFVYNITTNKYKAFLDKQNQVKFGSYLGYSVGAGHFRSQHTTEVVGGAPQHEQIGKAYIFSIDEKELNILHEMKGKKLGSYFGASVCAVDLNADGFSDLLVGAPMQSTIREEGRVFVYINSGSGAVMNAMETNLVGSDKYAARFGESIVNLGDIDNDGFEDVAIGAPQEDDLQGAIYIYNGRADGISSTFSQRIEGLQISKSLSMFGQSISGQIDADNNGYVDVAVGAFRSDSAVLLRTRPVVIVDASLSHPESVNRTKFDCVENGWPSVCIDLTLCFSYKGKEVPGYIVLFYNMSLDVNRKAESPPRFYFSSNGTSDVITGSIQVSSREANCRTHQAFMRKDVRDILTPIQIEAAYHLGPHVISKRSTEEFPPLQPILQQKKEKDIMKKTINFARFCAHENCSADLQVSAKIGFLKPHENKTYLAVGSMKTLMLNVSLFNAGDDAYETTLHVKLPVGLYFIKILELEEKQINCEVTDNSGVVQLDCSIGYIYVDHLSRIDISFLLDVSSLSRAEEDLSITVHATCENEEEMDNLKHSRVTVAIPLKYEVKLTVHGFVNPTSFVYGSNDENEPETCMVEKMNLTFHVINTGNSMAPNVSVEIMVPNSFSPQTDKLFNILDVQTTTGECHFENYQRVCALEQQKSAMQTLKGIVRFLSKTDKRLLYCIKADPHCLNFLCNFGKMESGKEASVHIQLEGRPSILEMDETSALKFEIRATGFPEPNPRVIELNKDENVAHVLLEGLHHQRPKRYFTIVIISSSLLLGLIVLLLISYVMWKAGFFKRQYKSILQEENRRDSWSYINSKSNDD
T1 sequence (P05556 21-798): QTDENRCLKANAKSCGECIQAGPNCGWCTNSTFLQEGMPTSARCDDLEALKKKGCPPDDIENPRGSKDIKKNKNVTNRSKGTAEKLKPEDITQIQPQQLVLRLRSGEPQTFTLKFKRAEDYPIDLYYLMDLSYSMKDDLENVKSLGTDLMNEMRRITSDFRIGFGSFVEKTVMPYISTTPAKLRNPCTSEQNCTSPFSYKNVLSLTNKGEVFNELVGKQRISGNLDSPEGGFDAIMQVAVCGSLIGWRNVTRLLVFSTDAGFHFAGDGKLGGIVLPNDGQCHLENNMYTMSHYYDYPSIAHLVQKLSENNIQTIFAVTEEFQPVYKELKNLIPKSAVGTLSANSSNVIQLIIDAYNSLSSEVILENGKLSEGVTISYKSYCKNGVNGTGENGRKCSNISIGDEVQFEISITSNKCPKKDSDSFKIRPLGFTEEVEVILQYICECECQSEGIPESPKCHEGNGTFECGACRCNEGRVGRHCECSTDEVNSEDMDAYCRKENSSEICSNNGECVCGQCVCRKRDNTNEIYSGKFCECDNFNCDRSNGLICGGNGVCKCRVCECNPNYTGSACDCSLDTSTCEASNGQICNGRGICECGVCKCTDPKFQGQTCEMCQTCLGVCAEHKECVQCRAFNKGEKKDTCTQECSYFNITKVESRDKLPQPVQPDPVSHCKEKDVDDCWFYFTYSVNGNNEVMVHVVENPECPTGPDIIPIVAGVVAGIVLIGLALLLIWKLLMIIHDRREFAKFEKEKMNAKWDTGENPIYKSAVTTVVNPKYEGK
T2 sequence (P13612 34-1032): as the sequence (P13612 34-1032) above
T2 sequence (P26010 20-798): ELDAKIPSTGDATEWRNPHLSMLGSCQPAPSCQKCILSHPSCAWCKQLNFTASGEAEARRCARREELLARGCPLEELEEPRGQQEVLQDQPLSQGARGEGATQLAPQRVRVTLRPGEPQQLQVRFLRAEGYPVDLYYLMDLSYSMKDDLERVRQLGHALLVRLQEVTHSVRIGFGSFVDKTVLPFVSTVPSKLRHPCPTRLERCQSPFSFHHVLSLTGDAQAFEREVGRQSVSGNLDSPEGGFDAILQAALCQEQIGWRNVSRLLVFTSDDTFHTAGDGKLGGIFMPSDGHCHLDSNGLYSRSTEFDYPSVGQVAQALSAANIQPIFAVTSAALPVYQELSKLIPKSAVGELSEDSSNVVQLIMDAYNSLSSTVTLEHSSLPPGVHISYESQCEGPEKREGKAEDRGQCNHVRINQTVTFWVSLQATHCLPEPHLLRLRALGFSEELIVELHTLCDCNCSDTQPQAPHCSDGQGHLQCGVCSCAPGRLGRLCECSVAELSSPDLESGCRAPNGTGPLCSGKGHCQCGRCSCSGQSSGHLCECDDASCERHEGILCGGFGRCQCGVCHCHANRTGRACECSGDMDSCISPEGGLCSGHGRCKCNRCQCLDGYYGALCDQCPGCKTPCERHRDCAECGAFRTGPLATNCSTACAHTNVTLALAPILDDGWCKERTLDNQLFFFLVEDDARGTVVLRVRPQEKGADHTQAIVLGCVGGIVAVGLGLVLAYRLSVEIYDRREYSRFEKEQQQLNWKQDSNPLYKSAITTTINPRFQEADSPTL

Row | SMILES | IC50 (α4β1 integrin [1]) [nM] | IC50 (α4β7 integrin [2]; [5]) [nM] | IC50 (α4β7 integrin [3]) [nM] | IC50 (α4β1 integrin [4]) [nM] | IC50 (α4β7 integrin [2]) [nM]
1 | Cn1ccc(=O)n([C@@H]2CCc3c(C[C@H](NC(=O)c4c(F)cccc4F)C(=O)O)cccc32)c1=O (single isomer, unassigned) [Compound 281] | > 1000 | 10 to 100 | – | – | –
2 | Cn1ccc(=O)n([C@H]2CCc3c(C[C@H](NC(=O)c4c(F)cccc4F)C(=O)O)cccc32)c1=O (single isomer, unassigned) [Compound 282] | > 1000 | 100 to 1000 | – | – | –
3 | Cn1ccc(=O)n(-c2cccc3c(C[C@H](NC(=O)c4c(F)cccc4F)C(=O)O)cccc23)c1=O [Compound 1] | 100 to 1000 | 10 to 100 | – | – | –
4 | O=C(N[C@@H](Cc1cccc2c(-n3c(=O)ccc4cnccc43)cccc12)C(=O)O)c1c(F)cccc1F [Compound 2] | > 1000 | < 10 | – | – | –
5 | Cn1c(=O)c2ccccc2n(-c2cccc3c(C[C@H](NC(=O)c4c(F)cccc4F)C(=O)O)cccc23)c1=O [Compound 3] | > 1000 | 10 to 100 | – | – | –
6 | Cc1cccc(C)c1-c1ccc(F)c(C(=O)N[C@@H](Cc2cccc3c(-c4c(C(F)(F)F)c5ccccc5n(C)c4=O)cccc23)C(=O)O)c1F [Compound 307] | – | – | 100 to 1000 | > 1000 | 100 to 1000
7 | Cn1c(=O)c(-c2cccc3c(C[C@H](NC(=O)c4c(F)cc(N5CCCCC5)cc4F)C(=O)O)cccc23)c(C(F)(F)F)c2ccccc21 [Compound 354] | – | – | 100 to 1000 | > 1000 | 100 to 1000
8 | Cn1c(=O)c(-c2cccc3c(C[C@H](NC(=O)c4c(F)cc(C5CCOCC5)cc4F)C(=O)O)cccc23)c(C(F)(F)F)c2ccccc21 [Compound 373] | – | – | 100 to 1000 | > 1000 | 100 to 1000
9 | CN(C)c1ccc2c(c1)c(C(F)(F)F)c(-c1cccc3c(C[C@H](NC(=O)[C@]4(C)CC[C@@H](N5CCC(F)(F)CC5)CC4)C(=O)O)cccc13)c(=O)n2C [Compound 411] | – | – | 100 to 1000 | > 1000 | 100 to 1000
10 | Cn1c(=O)c(-c2cccc3c(C[C@H](NC(=O)[C@]4(C(F)(F)F)CC[C@@H](N5CCOC[C@@H]5C(F)(F)F)CC4)C(=O)O)cccc23)c(C(F)(F)F)c2ccccc21 [Compound 422] | – | – | 100 to 1000 | > 1000 | 10 to 100
11 | Cn1c(=O)c(-c2cccc3c(C[C@H](NC(=O)c4c(F)cccc4C(F)(F)F)C(=O)O)cccc23)c(C(F)(F)F)c2ccccc21 [Compound 443] | – | – | > 1000 | – | 100 to 1000

Results, then the molecule that gave them:

Row | IC50 (α4β1 integrin [1]) [nM] | IC50 (α4β7 integrin [2]; [5]) [nM] | IC50 (α4β7 integrin [3]) [nM] | IC50 (α4β1 integrin [4]) [nM] | IC50 (α4β7 integrin [2]) [nM] | SMILES
12 | – | – | 10 to 100 | > 1000 | 10 to 100 | CN(C)Cc1cccc2c(-c3cccc4c(C[C@H](NC(=O)[C@]5(C)CC[C@H](N6CCOC[C@@H]6C(F)(F)F)CC5)C(=O)O)cccc34)nccc12 (single isomer, unassigned) [Compound 419]
13 | – | – | 10 to 100 | > 1000 | 100 to 1000 | Cc1cccnc1-c1ccc(F)c(C(=O)N[C@@H](Cc2cccc3c(-c4c(C(F)(F)F)c5ccccc5n(C)c4=O)cccc23)C(=O)O)c1F [Compound 316]
14 | – | – | 10 to 100 | 100 to 1000 | 10 to 100 | Cn1c(=O)c(-c2cccc3c(C[C@H](NC(=O)C4(C(F)(F)F)CCN(CC(F)(F)F)CC4)C(=O)O)cccc23)c(C(F)(F)F)c2ccccc21 [Compound 352]
15 | – | – | 10 to 100 | > 1000 | 10 to 100 | Cc1cccc(F)c1C(=O)N[C@@H](Cc1cccc2c(-c3c(C(F)(F)F)c4ccccc4n(C)c3=O)cccc12)C(=O)O [Compound 355]
16 | – | – | 10 to 100 | > 1000 | 10 to 100 | Cn1c(=O)c(-c2cccc3c(C[C@H](NC(=O)[C@]4(C)CC[C@@H](N5CCS(=O)(=O)CC5)CC4)C(=O)O)cccc23)c(C(F)(F)F)c2ccccc21 [Compound 403]
17 | – | – | < 10 | > 1000 | < 10 | CN(C)Cc1cccc2c(-c3cccc4c(C[C@H](NC(=O)c5c(F)cc(N6CCOC[C@@H]6C(F)(F)F)cc5CN5CCCC5)C(=O)O)cccc34)nccc12 [Compound 433]
